{"source": "patent US10703775B2", "about": "“Method of purifying antifungal compounds and exopolysaccharides from a microbial cell culture” (Bayer CropScience LP, priority 2016, dated 2020)", "test_system": "fungal pathogen", "experiment": "Control treatments with processing aids alone on young plants inoculated with fungal pathogen", "assay_type": "in vivo", "conditions": "applied alone at final rates similar to those in the pellet fractions; compared with UTC plants", "source_text": "GEROPON® (SDOS) and C12EO25 were also each applied to young plants at final rates similar to those in the pellet fractions. The young plants were later inoculated with fungal pathogen and the each plant was scored for percent control of the pathogen relative to the UTC plants.", "data": [{"substance": "polyoxyethylene (25) dodecyl ether [C12EO25]", "values": [{"measurement": "inherent antifungal activity", "value": "no inherent antifungal activity"}]}]}
